Where a SMILES comes first, the peptide text is derived from it. The star is where a group is joined. ξ: configuration not given here. Succinyl(3ξ-Ph) = O=C(O)C(CC(=O)*)c1ccccc1; X4 = CC(=O)SC(CC(=O)*)C(=O)O; X3 = CCCCC(CC(=O)*)C(=O)O; Bz = O=C(c1ccccc1)*
What was measured:
[1] = biological target: T1, NAD-dependent protein deacylase sirtuin-5, mitochondrial (Homo sapiens, UniProt Q9NXA8); assay: Inhibition of human recombinant SIRT5 using fluorogenic Benzyl-Lys(Succinyl)-AMC as substrate incubated for 2 hrs measured by fluoroscence based microplate reader method
Target sequence in this assay (Q9NXA8 whole entry): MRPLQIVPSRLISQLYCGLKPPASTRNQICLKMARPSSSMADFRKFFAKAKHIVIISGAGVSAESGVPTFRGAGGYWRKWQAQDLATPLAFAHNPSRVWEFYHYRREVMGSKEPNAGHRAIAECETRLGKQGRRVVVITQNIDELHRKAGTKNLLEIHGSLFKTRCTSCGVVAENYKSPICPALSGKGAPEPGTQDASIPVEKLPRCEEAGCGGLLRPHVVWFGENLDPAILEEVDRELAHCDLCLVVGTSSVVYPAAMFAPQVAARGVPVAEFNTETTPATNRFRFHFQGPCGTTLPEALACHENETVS

[2] = biological target: T1, NAD-dependent protein deacylase sirtuin-5, mitochondrial; assay: Inhibition of SIRT5 deglutarylase activity (unknown origin)
Target sequence in this assay (Q9NXA8 whole entry): as above

[3] = biological target: T2, NAD-dependent protein deacetylase sirtuin-3, mitochondrial (Homo sapiens) (UniProt Q9NTG7); assay: Inhibition of SIRT3 (unknown origin) at 10 uM relative to control
T2 sequence (whole entry): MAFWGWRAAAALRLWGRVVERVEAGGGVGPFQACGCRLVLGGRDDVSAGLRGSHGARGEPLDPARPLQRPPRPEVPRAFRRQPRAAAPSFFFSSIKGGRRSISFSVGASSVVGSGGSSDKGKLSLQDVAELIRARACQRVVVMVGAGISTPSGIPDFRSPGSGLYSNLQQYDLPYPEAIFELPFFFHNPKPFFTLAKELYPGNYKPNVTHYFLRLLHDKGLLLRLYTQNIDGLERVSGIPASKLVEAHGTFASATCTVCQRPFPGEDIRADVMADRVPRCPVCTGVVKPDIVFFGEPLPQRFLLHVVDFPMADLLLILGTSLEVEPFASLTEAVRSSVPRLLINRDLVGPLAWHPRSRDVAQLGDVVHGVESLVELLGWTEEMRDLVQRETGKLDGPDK

[4] = biological target: T2, NAD-dependent protein deacetylase sirtuin-3, mitochondrial (Homo sapiens); assay: Inhibition of SIRT3 (unknown origin) at 50 uM incubated for 15 mins by fluorometric assay relative to control
[5] = biological target: T1, NAD-dependent protein deacylase sirtuin-5, mitochondrial; assay: Inhibition of SIRT5 (unknown origin) at 50 uM incubated for 15 mins by fluorometric assay relative to control
Target sequence in this assay (Q9NXA8 37-310 limits assumed): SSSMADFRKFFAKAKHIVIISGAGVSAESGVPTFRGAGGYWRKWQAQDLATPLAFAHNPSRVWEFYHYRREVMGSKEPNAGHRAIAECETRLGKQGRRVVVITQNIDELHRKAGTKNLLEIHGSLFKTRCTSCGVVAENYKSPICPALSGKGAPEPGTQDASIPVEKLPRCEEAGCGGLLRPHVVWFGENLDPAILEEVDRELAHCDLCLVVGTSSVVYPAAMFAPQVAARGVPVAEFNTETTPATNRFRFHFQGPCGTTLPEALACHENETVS

[6] = biological target: T1, NAD-dependent protein deacylase sirtuin-5, mitochondrial; assay: Binding affinity to SIRT5 (unknown origin) assessed as desuccinylation activity by measuring dissociation constant
Target sequence in this assay (Q9NXA8 whole entry): as the sequence (Q9NXA8 whole entry) above

[7] = biological target: T1, NAD-dependent protein deacylase sirtuin-5, mitochondrial; assay: Binding affinity to SIRT5 (unknown origin) assessed as desuccinylation activity by measuring inhibition constant
Target sequence in this assay (Q9NXA8 whole entry): as above

[8] = test system: MOLM-13; assay: Cytotoxicity against human MOLM-13 cells; format: functional, cell-based
[9] = biological target: T3, NAD-dependent protein deacetylase sirtuin-1 (Homo sapiens) (UniProt Q96EB6); assay: Inhibition of SIRT1 (unknown origin) at 1 uM relative to control
T3 sequence (whole entry): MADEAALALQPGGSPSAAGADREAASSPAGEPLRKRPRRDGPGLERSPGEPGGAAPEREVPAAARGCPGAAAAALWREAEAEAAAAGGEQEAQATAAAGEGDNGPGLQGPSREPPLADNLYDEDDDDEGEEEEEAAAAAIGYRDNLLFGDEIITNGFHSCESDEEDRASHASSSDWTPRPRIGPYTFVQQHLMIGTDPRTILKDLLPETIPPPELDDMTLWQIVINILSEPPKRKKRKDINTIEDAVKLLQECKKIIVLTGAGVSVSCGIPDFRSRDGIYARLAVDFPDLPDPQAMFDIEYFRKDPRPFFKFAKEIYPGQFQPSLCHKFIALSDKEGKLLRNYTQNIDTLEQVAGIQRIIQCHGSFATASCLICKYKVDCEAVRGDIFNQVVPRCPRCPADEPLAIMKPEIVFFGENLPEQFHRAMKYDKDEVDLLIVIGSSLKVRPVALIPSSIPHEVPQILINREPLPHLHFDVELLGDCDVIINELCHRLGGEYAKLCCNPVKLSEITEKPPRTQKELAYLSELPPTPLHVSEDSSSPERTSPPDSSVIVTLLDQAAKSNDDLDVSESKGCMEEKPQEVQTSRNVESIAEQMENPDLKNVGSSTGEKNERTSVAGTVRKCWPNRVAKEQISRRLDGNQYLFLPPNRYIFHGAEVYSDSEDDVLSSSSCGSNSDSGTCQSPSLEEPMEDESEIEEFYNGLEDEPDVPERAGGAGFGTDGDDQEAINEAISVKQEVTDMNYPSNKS

[10] = test system: HEK-293T; assay: Cytotoxicity against human HEK293T cells at 100 uM relative to control; format: toxicity, cell-based
[11] = test system: OCI-AML2; assay: cells; details: Homo sapiens
Description: Cytotoxicity against human OCI-AML2 cells

[12] = test system: SKM-1; assay: cells; details: Homo sapiens
Description: Cytotoxicity against human SKM-1 cells

[13] = biological target: T1, NAD-dependent protein deacylase sirtuin-5, mitochondrial; assay: Inhibition of SIRT5 desuccinylase activity (unknown origin) using succinyl-lysine as substrate
Target sequence in this assay (Q9NXA8 whole entry): as the sequence (Q9NXA8 whole entry) above

**Q.** With `Cc1ccc(NC(=O)/C(C#N)=C/c2ccc(-c3ccc(C(=O)O)cc3C)o2)cc1C` as the compound, how does the IC50 [1] read?
**A.** 57.4 µM

**Q.** Which results are given for `O=C(NC1CCC1)[C@H](Cc1c[nH]c2ccccc12)NC(=O)[C@H](CCCCNC(=S)NCCc1cc(O)on1)NS(=O)(=O)c1cccc(F)c1`?
**A.** IC50 [2]: 0.29 µM; inhibition [3]: 40%

**Q.** Which inhibition [4] does the source give for `O=C(CC[C@H](NC(=O)OCc1ccccc1)C(=O)O)NCCCC[C@H](NC(=O)OCc1ccccc1)C(=O)Nc1ccccc1` here?
**A.** 8%

**Q.** And the inhibition [5]?
**A.** 42%

**Q.** How did the IC50 [2] turn out when `O=C(O)CCNC(=S)NCCCC[C@H](NS(=O)(=O)c1cccc(F)c1)C(=O)N[C@@H](Cc1c[nH]c2ccccc12)C(=O)NC1CC1` was run?
**A.** 0.26 µM

**Q.** `N#C/C(=C\c1ccc(-c2ccc(C(=O)O)cc2)o1)C(=O)Nc1ccc(Cl)c(C(F)(F)F)c1` was tested. Which IC50 [1] did it give?
**A.** 16.4 µM

**Q.** `CC(C)C[C@H](NC(=O)[C@@H](NC(=O)CNC(=O)c1ccccc1)C(C)C)C(=O)N[C@@H](CCCCNC(=O)CC(C(=O)O)c1ccccc1)C(=O)N[C@@H](CCC(=O)O)C(=O)N[C@@H](Cc1ccc(O)cc1)C(=O)NCC(=O)N[C@H](C(N)=O)C(C)C` (stereo not given in full) (Bz-GVLK(Succinyl(3ξ-Ph))EYGV-NH2) was tested. Which Kd [6] did it give?
**A.** 8.2 µM

**Q.** What about the Ki [7] of the same compound?
**A.** 100 µM

**Q.** For `Cc1ccc(NC(=O)/C(C#N)=C/c2ccc(-c3ccc(C(=O)O)cc3)o2)cc1C`, which IC50 [1] is on record?
**A.** 22.7 µM

**Q.** With `CCCCC(CC(=O)NCCCC[C@H](NC(=O)[C@H](CC(C)C)NC(=O)[C@@H](NC(=O)CNC(=O)c1ccccc1)C(C)C)C(=O)N[C@@H](CCC(=O)O)C(=O)N[C@@H](Cc1ccc(O)cc1)C(=O)NCC(=O)N[C@H](C(N)=O)C(C)C)C(=O)O` (stereo not given in full) (Bz-GVLK(X3)EYGV-NH2) as the compound, how does the Ki [7] read?
**A.** 17.2 µM

**Q.** With `CC(C)C(OC(=O)C(C)(C)C)n1nnnc1CCCNC(=S)NCCCC[C@H](NS(=O)(=O)c1cccc(F)c1)C(=O)N[C@@H](Cc1c[nH]c2ccccc12)C(=O)NC1CCC1` (stereo not given in full) as the compound, how does the IC50 [8] read?
**A.** 24 µM

**Q.** What about the inhibition [9] of the same compound?
**A.** 76%

**Q.** And the Activity [10]?
**A.** 35%

**Q.** What about the IC50 [11] of the same compound?
**A.** 20 µM

**Q.** What about the IC50 [12] of the same compound?
**A.** 9 µM

**Q.** For `N=C(N)NCCC[C@@H]1NC(=O)CCC(=O)NCCCC[C@@H](C(N)=O)NC(=O)[C@H](CCCCNC(=S)NCCC(=O)O)NC1=O`, which IC50 [13] is on record?
**A.** 4 µM

**Q.** How did the IC50 [13] turn out when `CC(=O)NCCCC[C@H](NC(=O)[C@H](CCCCNC(=S)NCCC(=O)O)NC(=O)C(CCCNC(=N)N)NC(C)=O)C(N)=O` (stereo not given in full) was run?
**A.** 93.1 µM

**Q.** With `CC(=O)SC(CC(=O)NCCCC[C@H](NC(=O)[C@H](CC(C)C)NC(=O)[C@@H](NC(=O)CNC(=O)c1ccccc1)C(C)C)C(=O)N[C@@H](CCC(=O)O)C(=O)N[C@@H](Cc1ccc(O)cc1)C(=O)NCC(=O)N[C@H](C(N)=O)C(C)C)C(=O)O` (stereo not given in full) (Bz-GVLK(X4)EYGV-NH2) as the compound, how does the Ki [7] read?
**A.** 10.6 µM

**Q.** For `O=C(NC1CCC1)[C@H](Cc1c[nH]c2ccccc12)NC(=O)[C@H](CCCCNC(=S)NCCc1noc(=S)[nH]1)NS(=O)(=O)c1cccc(F)c1`, which IC50 [2] is on record?
**A.** 0.9 µM

Reference: ChEMBL document CHEMBL5137064, “Therapeutic Potential and Activity Modulation of the Protein Lysine Deacylase Sirtuin 5” (J Med Chem, 2022)
